Measurements reported in patent US5733719A, “Method of making an assay compound” (priority 1995, dated 1998).

Key:
[1] = system: aminopeptidase; assay: Inhibition of aminopeptidase reaction with (H-L-Asp)2 rhodamine 110; format: biochemical; details: approximately 10 mM
From the text: The chemical nature of the buffer is important to the reactivity of the assay compound with the cellular enzymes. […] In addition, the assay compound hydrolysis by the enzyme occurs at an increased rate of reaction.

[2] = Effect of sodium chloride on dipeptide reagent; details: 7mM, pH range of 6.5 to 8.7
From the text: Inhibitors and poisons (or toxins) are components that can be added to reduce the activity of non-targeted enzymes that provide competing reactions for the leaving group. Inhibitors are usually very selective for a particular enzyme. For example, EDTA only works with enzymes requiring Ca^+2, Mg^+2 and some other metals. […] Preferred inhibitors for particular enzymes are included in Table 1.

Compound	inhibition of enzyme reaction with (H-L-Asp)2 rhodamine 110 [1]	inhibitory effect on dipeptide reagent [2]
[Ca+2].[Cl-].[Cl-] [calcium chloride]	inhibitory	
[Cl-].[Na+] [sodium chloride]		slightly inhibitory effect
